Counter-ions that a name gives are not always drawn.
test system: DBA/2 mice; experiment: Audiogenic seizure model; assay type: in vivo; settings: Mus musculus; DBA/2 mice, oral, dose 5 mg/kg, auditory stimulation 1 hour after administration; read-out: Seizure suppression
Protocol: The animal model used in this test is a phenotype model for partial seizure (including secondary generalized seizure) and generalized tonic-clonic seizure, and has high clinical predictability. This test was performed in accordance with the report of De Sarro et al (Br J Pharmacol. 1988 February; 93 (2): 247-56. Anticonvulsant effects of some calcium entry blockers in DBA/2 mice. De Sarro G B, Meldrum B S, Nistico G.).
In this test example, the example compounds shown in Tables 3-1 to 3-3 below were used as test compounds.
The test compounds were suspended in 5% gum arabic/distilled water (w/v), and administered by forced oral administration to male and female DBA/2 mice (Japan SLC, Inc., 3 weeks old, 8 per group) at a dose of 30 mg/kg. After one hour of the oral administration of the test compound, each mouse was placed in a transparent acrylic cylinder 30 cm high and 23 cm in diameter, and 30 seconds were allowed for habituation. Then, they were exposed to auditory stimulation (12.6 kHz, 100-110 dB) for 1 minute or until a tonic seizure occurred.
The seizure response was assessed using the following scale, 0: no seizure, 1: wild running, 2: clonic seizure, 3: tonic seizure and 4: respiratory arrest. The maximum response was recorded as the seizure severity score.
The seizure suppression rate for each compound administration group was calculated according to the following formula.
Here, a rate of seizure suppression of 90% or more was expressed as “A”, a rate of seizure suppression of 70% or more and less than 90% was expressed as “B”, and a rate of seizure suppression of 50% or more and less than 70% was expressed as “C”.

`Fc1ccc(Oc2ncc(-c3ccc4nccn4c3)cn2)cc1F` [Example 168] and `Fc1cc(F)cc(Oc2ncc(-c3ccc4nccn4c3)cn2)c1` [Example 169] cannot be ordered by inhibition in vivo at 5 mg/kg: over 90% for the first, over 90% for the second.

`Nc1ccc(-c2cnc(Oc3ccccc3F)nc2)cn1` [Example 45] and `O=C1Cc2cc(-c3cnc(Oc4ccccc4F)nc3)ccc2N1` [Example 264] cannot be ordered by inhibition in vivo at 5 mg/kg: over 90% for the first, over 90% for the second.

same assay, conditions: Mus musculus; DBA/2 mice, oral, dose 30 mg/kg, auditory stimulation 1 hour after administration; read-out: Seizure suppression

`CC(C)(O)c1ccc(-c2cnc(Oc3ccccc3)nc2)nn1` [Example 69, 2-(6-(2-Phenoxypyrimidin-5-Yl)Pyridazin-3-Yl) Propan-2-Ol] and `Fc1cccc(Oc2ncc(-c3ccc(C(F)(F)F)nn3)cn2)c1` [Example 46] cannot be ordered by inhibition in vivo at 30 mg/kg: over 90% for the first, over 90% for the second.

`Fc1cccc(Oc2ncc(-c3ccn4ccnc4c3)cn2)c1` [Example 131] and `Fc1ccccc1Oc1ncc(-c2ccn3ccnc3c2)cn1` [Example 130] cannot be ordered by inhibition in vivo at 30 mg/kg: over 90% for the first, over 90% for the second.

`COc1nc(Oc2ccccc2)ncc1-c1ccc2nncn2c1` [Example 159] and `c1ccc(Oc2ncc(-c3cnc4nccn4c3)cn2)cc1` [Example 128] cannot be ordered by inhibition in vivo at 30 mg/kg: over 90% for the first, over 90% for the second.

`Cc1cnc2ccc(-c3cnc(Oc4cccc(F)c4)nc3)cn12` [Example 192] and `Cc1cn2cc(-c3cnc(Oc4cccc(F)c4)nc3)ccc2n1` [Example 179] cannot be ordered by inhibition in vivo at 30 mg/kg: over 90% for the first, over 90% for the second.

`Fc1cccc(Oc2ncc(-c3ccc4ncnn4c3)cn2)c1` [Example 145] and `Fc1cccc(Oc2ncc(-c3cnc4ncnn4c3)cn2)c1` [Example 189] cannot be ordered by inhibition in vivo at 30 mg/kg: over 90% for the first, over 90% for the second.

`Fc1ccccc1Oc1ncc(-c2ccn3nccc3c2)cn1` [Example 195] and `Fc1ccc(Oc2ncc(-c3ccn4nccc4c3)cn2)cc1` [Example 197] cannot be ordered by inhibition in vivo at 30 mg/kg: over 90% for the first, over 90% for the second.

`c1ccc(Oc2ncc(-c3cccc4ccncc34)cn2)cc1` [Example 249] and `c1ccc(Oc2ncc(-c3ccc4cnccc4c3)cn2)cc1` [Example 251] cannot be ordered by inhibition in vivo at 30 mg/kg: over 90% for the first, over 90% for the second.

`c1ccc(Oc2ncc(-c3ccc4nccnc4c3)cn2)cc1` [Example 253] and `c1ccc(Oc2ncc(-c3ccc4[nH]cnc4c3)cn2)cc1` [Example 257, 5-(2-Phenoxypyrimidin-5-Yl)-1H-Benzo[d]Imidazole Oxalate] cannot be ordered by inhibition in vivo at 30 mg/kg: over 90% for the first, over 90% for the second.

`O=c1ccc(-c2cnc(Oc3cc(F)ccc3F)nc2)n[nH]1` [Example 108] and `COc1ccc(-c2cnc(Oc3cc(F)ccc3F)nc2)nn1` [Example 63, 3-(2-(2,5-Difluorophenoxy)Pyrimidin-5-Yl)-6-Methoxypyridazine] cannot be ordered by inhibition in vivo at 30 mg/kg: over 90% for the first, over 90% for the second.

`Cc1c(-c2cnc(Oc3cccc(F)c3)nc2)ccc2nccn12` [Example 200] and `Cc1nc2cc(-c3cnc(Oc4cccc(F)c4)nc3)ccn2c1C` [Example 206] cannot be ordered by inhibition in vivo at 30 mg/kg: over 90% for the first, over 90% for the second.

`COc1ccc(-c2cnc(Oc3cccc(C#N)c3)nc2)nn1` [Example 73] and `COc1ccc(-c2cnc(Oc3cccc(F)c3F)nc2)nn1` [Example 68] cannot be ordered by inhibition in vivo at 30 mg/kg: over 90% for the first, over 90% for the second.

`O=C1CCc2ccc(-c3cnc(Oc4ccccc4)nc3)cc2N1` [Example 246] and `O=c1[nH]cnc2ccc(-c3cnc(Oc4ccccc4)nc3)cc12` [Example 254] cannot be ordered by inhibition in vivo at 30 mg/kg: over 90% for the first, over 90% for the second.

`O=C1CCOCCN1c1cnc(Oc2ccccc2)nc1` [Example 232] and `O=C1CCOCCN1c1cnc(Oc2ccc(F)cc2)nc1` [Example 234] cannot be ordered by inhibition in vivo at 30 mg/kg: over 90% for the first, over 90% for the second.

`O=C1CCN(c2ccc(Oc3cccc(F)c3)c3ccccc23)C(=O)N1` [Example 345] and `Cc1cc(Oc2cccc(F)c2)ccc1N1CCC(=O)NC1=O` [Example 334] fall in the same range of inhibition in vivo at 30 mg/kg: 50 to 70% for the first, 50 to 70% for the second.

`Cc1ncccc1-c1cnc(Oc2cccc(C(F)(F)F)c2)nc1` [Example 76] and `Cc1ncccc1-c1cnc(Oc2cccc(OC(F)(F)F)c2)nc1` [Example 77] cannot be ordered by inhibition in vivo at 30 mg/kg: over 90% for the first, over 90% for the second.

`Cc1nc2ccc(-c3cnc(Oc4ccccc4F)nc3)cn2c1C` [Example 202] and `Cc1nc2cc(-c3cnc(Oc4ccccc4F)nc3)ccn2c1C` [Example 205] cannot be ordered by inhibition in vivo at 30 mg/kg: over 90% for the first, over 90% for the second.

`Nc1ccc(-c2cnc(Oc3c(F)cccc3F)nc2)nn1` [Example 39] and `Cc1ccc(-c2cnc(Oc3cc(F)cc(F)c3)nc2)nn1` [Example 17] cannot be ordered by inhibition in vivo at 30 mg/kg: over 90% for the first, over 90% for the second.

`Cc1nc2ccc(-c3cnc(Oc4ccc(F)cc4)nc3)cn2c1C` [Example 203] and `[O-][n+]1cccc(-c2cnc(Oc3ccc(F)cc3)nc2)c1` [Example 62] cannot be ordered by inhibition in vivo at 30 mg/kg: over 90% for the first, over 90% for the second.

`Nc1ccc(-c2cnc(Oc3ccc(F)cc3F)nc2)cn1` [Example 86] and `Cc1cccc(Oc2ncc(-c3ccc(N)nc3)cn2)c1` [Example 88, 5-(2-(m-Tolyloxy)Pyrimidin-5-Yl)Pyridin-2-Amine] cannot be ordered by inhibition in vivo at 30 mg/kg: over 90% for the first, over 90% for the second.

`O=C1Cc2c(cccc2-c2cnc(Oc3ccccc3)nc2)N1` [Example 272] and `c1ccc(Oc2ncc(-c3ccnc4ncccc34)cn2)cc1` [Example 139, 4-(2-Phenoxypyrimidin-5-Yl)-1,8-Naphthyridine] cannot be ordered by inhibition in vivo at 30 mg/kg: over 90% for the first, over 90% for the second.

`FC(F)(F)Oc1cccc(Oc2ncc(-c3ccc(C(F)(F)F)nn3)cn2)c1` [Example 67] and `Nc1ccc(-c2cnc(Oc3cccc(OC(F)(F)F)c3)nc2)cn1` [Example 48] cannot be ordered by inhibition in vivo at 30 mg/kg: over 90% for the first, over 90% for the second.

`OC1CCN(c2cnc(Oc3cccc(F)c3)nc2)CC1` [Example 227] and `O=C1NCCCN1c1cnc(Oc2cccc(F)c2)nc1` [Example 221, 1-(2-(3-Fluorophenoxy)Pyrimidin-5-Yl)Tetrahydropyrimidin-2 (1H)-One] cannot be ordered by inhibition in vivo at 30 mg/kg: over 90% for the first, over 90% for the second.

`O=C1CCC(c2cnc(Oc3ccccc3F)nc2)=NN1` [Example 96] and `O=C1CCC(c2cnc(Oc3cccc(F)c3)nc2)=NN1` [Example 94, 6-(2-(3-Fluorophenoxy)Pyrimidin-5-Yl)-4,5-Dihydropyridazin-3 (2H)-One] cannot be ordered by inhibition in vivo at 30 mg/kg: over 90% for the first, over 90% for the second.

`Fc1cccc(Oc2ncc(-c3ccn4nncc4c3)cn2)c1` [Example 186] and `Fc1cccc(Oc2ncc(-c3cn4ccnc4cn3)cn2)c1` [Example 150] cannot be ordered by inhibition in vivo at 30 mg/kg: over 90% for the first, over 90% for the second.

`O=c1[nH]nccc1-c1cnc(Oc2ccccc2F)nc1` [Example 117] and `O=C1Cc2cc(-c3cnc(Oc4ccccc4F)nc3)ccc2N1` [Example 264] cannot be ordered by inhibition in vivo at 30 mg/kg: over 90% for the first, over 90% for the second.

`O=C1CCN(c2ccc(Oc3cccnc3)cc2)C(=O)N1` [Example 318] and `O=C1CCN(c2ccc(Oc3cccc(F)n3)cc2)C(=O)N1` [Example 321, 1-[4-(6-Fluoropyridin-2-Yloxy)Phenyl]Dihydropyrimidine-2,4 (1H,3H)-Dione] fall in the same range of inhibition in vivo at 30 mg/kg: 50 to 70% for the first, 50 to 70% for the second.

First: O=C1CCN(c2ccc(Oc3cc(F)cc(F)c3)cc2)C(=O)N1 [Example 344]
Second: O=C1CCN(c2cccc(Oc3ccc(F)cc3)c2)C(=O)N1 [Example 315]
The inhibition in vivo at 30 mg/kg of the first is lower: 50 to 70% for the first, 70 to 90% for the second.

`O=c1cc(-c2cnc(Oc3ccccc3)nc2)cn[nH]1` [Example 116] and `c1ccc(Oc2ncc(-c3ccn4ncnc4c3)cn2)cc1` [Example 135] cannot be ordered by inhibition in vivo at 30 mg/kg: over 90% for the first, over 90% for the second.

`Cc1cccc(Oc2ncc(-c3ccc(C)nc3)cn2)c1` [Example 28] and `COc1ccc(-c2cnc(Oc3cccc(C)c3)nc2)cn1` [Example 29] cannot be ordered by inhibition in vivo at 30 mg/kg: over 90% for the first, over 90% for the second.

`O=C1CCN(c2ccc(Cc3ccc(C(F)(F)F)cc3)cc2)C(=O)N1` [Example 342] and `O=C1CCN(c2ccc(OC(F)(F)F)cc2)C(=O)N1` [Example 319] fall in the same range of inhibition in vivo at 30 mg/kg: 50 to 70% for the first, 50 to 70% for the second.

`Fc1cc(F)cc(Oc2ncc(-c3cccnc3)cn2)c1` [Example 18] and `Cc1cccc(Oc2ncc(-c3cccnc3)cn2)c1` [Example 35] cannot be ordered by inhibition in vivo at 30 mg/kg: over 90% for the first, over 90% for the second.

`O=C1COCCN1c1cnc(Oc2ccc(F)cc2)nc1` [Example 231] and `Fc1ccc(Oc2ncc(N3CCOCC3)cn2)cc1` [Example 225] cannot be ordered by inhibition in vivo at 30 mg/kg: over 90% for the first, over 90% for the second.

`FC(F)c1ccc(-c2cnc(Oc3ccccc3)nc2)cn1` [Example 37] and `N#Cc1cccc(Oc2ncc(-c3ccc(N)nc3)cn2)c1` [Example 89] cannot be ordered by inhibition in vivo at 30 mg/kg: over 90% for the first, over 90% for the second.

Compared with `CN1C(=O)CCN(c2ccc(Oc3cccc(F)c3)cc2)C1=O` [Example 308, 1-(4-(3-Fluorophenoxy)Phenyl)-3-Methyldihydropyrimidine-2,4 (1H,3H)-Dione], `Cn1ncc2ccc(-c3cnc(Oc4cccc(F)c4)nc3)nc21` [Example 277] is higher in inhibition in vivo at 30 mg/kg: 50 to 70% for the first, over 90% for the second.

`Nc1cc(-c2cnc(Oc3cccc(C(F)(F)F)c3)nc2)ccn1` [Example 81] and `COc1ccc(-c2cnc(Oc3cccc(C(F)(F)F)c3)nc2)cn1` [Example 16] cannot be ordered by inhibition in vivo at 30 mg/kg: over 90% for the first, over 90% for the second.

With `O=C1Cc2ccc(-c3cnc(Oc4ccccc4F)nc3)cc2N1` [Example 269] the inhibition in vivo at 30 mg/kg was over 90%.

From US12391674B2, “Heterocyclic compounds for the treatment of epilepsy” (OTSUKA PHARMACEUTICAL CO., LTD., priority 2018, dated 2025)
